Columns and labels:
[1] = system: layer of rat vascular endothelial cells and layer of rat smooth muscle cells on porous membrane; test: FITC-Dextran permeability test of cell-layer-affixed blood vessel model after drug exposure; assay type: cell-based; details: drug 500 ng/ml, 0.7 μL/min, one day, upper microchannel, imaged two minutes after running FITC-Dextran
Method: The cells employed in example 3 and comparative example 3 were the same as that employed in example 2 and comparative example 2. To form the cell layers, the lower microchannel was initially seeded with 100 μL of a cell suspension of rat smooth muscle cells having a cell concentration of 3×10^6 cells/ml. After a day of cultivation, the upper microchannel was seeded with 100 μL of a cell suspension of rat vascular endothelial cells having a cell concentration of 1×10^6 cells/ml and cultivated for six hours. Then, a respective culture medium (rat EC medium/SMC medium) was run through each channel with a rate of fluid delivery of 0.7 μL/min using a pump. After two days of cultivation, the cell-layer-affixed blood vessel models of example 3 and comparative example 3 were obtained. […]
Two minutes after running the FITC-Dextran through the channels, an inverted microscope (product name Eclipse Ts2, made by Nikon) was used to image fluorescence in the microchannels. […]
After drug exposure, a FITC-Dextran permeability test was performed using the same method as the FITC-Dextran permeability test for the cell-layer-affixed blood vessel models described above. […] In the cell-layer-affixed blood vessel model of comparative example 3, the fluorescence observed in the lower microchannel was minimal. […]

[2] = system: layer of rat vascular endothelial cells and layer of rat smooth muscle cells on porous membrane; test: fluorescent bead permeability test of cell-layer-affixed blood vessel model after drug exposure; assay type: cell-based; details: drug 50 μg/ml, 0.7 μL/min, one day, both microchannels, 4 μm beads 1.81×10^6 beads/ml in upper microchannel
Method: In example 2 and comparative example 2, Rat Arterial Endothelial Cells produced by Angio-Proteomie were employed for the rat vascular endothelial cells, and Rat Aortic Smooth Muscle Cells produced by Lonza were employed for the rat smooth muscle cells. The lower microchannel was initially seeded with 100 μL of a cell suspension of rat smooth muscle cells having a cell concentration of 3×10^6 cells/ml. After a day of cultivation, the upper microchannel was seeded with 100 μL of a cell suspension of rat vascular endothelial cells having a cell concentration of 3×10^6 cells/ml. After two days of cultivation, the cell-layer-affixed blood vessel models of example 2 and comparative example 2 were obtained.
A culture medium dilution containing fluorescent beads at a concentration of 1.81×10^6 beads/ml for a tracer was run through the upper microchannel of the cell-layer-affixed blood vessel models produced in example 2 and comparative example 2, and a culture medium not containing fluorescent beads was run through the lower microchannel. […]

FITC-Dextran fluorescence observed in the lower microchannel ([1]; blood vessel model of comparative example 3 (track-etched porous membrane)) | Compound | FITC-Dextran fluorescence observed in the microchannels ([1]; blood vessel model of example 3 (honeycomb porous membrane)) | number of fluorescent beads inside the lower microchannel ([2]; blood vessel model of comparative example 2 (track-etched porous membrane)) | number of fluorescent beads inside the lower microchannel ([2]; blood vessel model of example 2 (honeycomb porous membrane))
minimal | Oc1ccc(C2CNCCc3c2cc(O)c(O)c3Cl)cc1 (stereo not shown) [fenoldopam] | fluorescence was observed over a wide area, including in the lower microchannel |  | 
 | cytochalasin |  | 6.7×10^3 beads/ml | 1.7×10^5 beads/ml

— patent US12504425B2, “Blood vessel model” (FUJIFILM CORPORATION, priority 2017, dated 2025)
